Measured values published in US9169254B2, “Spiroimidazolone derivative” (Chugai Seiyaku Kabushiki Kaisha, priority 2009, dated 2015).

target: T1, human PTH1 receptor (Homo sapiens, UniProt Q03431); experiment: In vitro cAMP signal activity in HKRK-B7 cells (LLC-PK1 cells overexpressing the human PTH1 receptor); assay type: cell-based; conditions: HKRK-B7 cells; compound at 1×10^−3 M; cAMP produced as percentage of that produced by hPTH(1-34) at 100 nM
T1 sequence (Q03431 27-593): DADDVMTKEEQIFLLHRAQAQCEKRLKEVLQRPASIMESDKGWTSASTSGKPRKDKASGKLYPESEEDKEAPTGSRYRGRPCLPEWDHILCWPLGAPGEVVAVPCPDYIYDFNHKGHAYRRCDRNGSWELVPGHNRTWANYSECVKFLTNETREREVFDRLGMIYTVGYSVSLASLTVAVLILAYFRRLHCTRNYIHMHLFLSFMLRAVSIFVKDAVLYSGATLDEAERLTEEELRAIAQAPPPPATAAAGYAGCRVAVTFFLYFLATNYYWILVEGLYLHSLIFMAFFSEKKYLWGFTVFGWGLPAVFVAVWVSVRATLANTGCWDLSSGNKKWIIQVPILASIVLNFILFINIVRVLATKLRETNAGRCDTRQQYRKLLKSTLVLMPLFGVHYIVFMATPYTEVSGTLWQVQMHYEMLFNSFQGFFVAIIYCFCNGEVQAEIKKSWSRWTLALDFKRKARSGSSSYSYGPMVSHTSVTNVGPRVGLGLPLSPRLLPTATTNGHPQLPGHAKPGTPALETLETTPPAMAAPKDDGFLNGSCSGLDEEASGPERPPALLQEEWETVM

In order of falling “cAMP production activity (%)” value:
1. Cc1cc(CN2C(=O)CNC2=O)cc(C)c1/C=C/S(=O)(=O)N1CCC2(CC1)N=C(C1CCC(CCC(F)(F)F)CC1)NC2=O (stereo not drawn) [Compound 554, 3-[3,5-dimethyl-4-((E)-2-{4-oxo-2-[4-(3,3,3-trifluoro-propyl)-cyclohexyl]-1,3,8-triaza-spiro[4.5]dec-1-ene-8-sulfonyl}-vinyl)-benzyl]-imidazolidine-2,4-dione]  82%
2. Cc1cc(CO)cc(C)c1/C=C/S(=O)(=O)N1CCC2(CC1)N=C(C1CCC(CCC(F)(F)F)CC1)NC2=O (stereo not drawn) [Compound 553, 8-[(E)-2-(4-hydroxymethyl-2,6-dimethyl-phenyl)-ethenesulfonyl]-2-[4-(3,3,3-trifluoro-propyl)-cyclohexyl]-1,3,8-triaza-spiro[4.5]dec-1-en-4-one]  80%
3. CC(=O)NCc1cc(C)c(/C=C/S(=O)(=O)N2CCC3(CC2)N=C(C2CCC(CCC(F)(F)F)CC2)NC3=O)c(C)c1 (stereo not drawn) [Compound 558, N-[3,5-dimethyl-4-((E)-2-{4-oxo-2-[4-(3,3,3-trifluoro-propyl)-cyclohexyl]-1,3,8-triaza-spiro[4.5]dec-1-ene-8-sulfonyl}-vinyl)-benzyl]-acetamide]  74%
4. CCCCC1CCC(C2=NC3(CCN(S(=O)(=O)/C=C/c4c(C)cc(N(CCOCCF)C(C)=O)cc4C)CC3)C(=O)N2)CC1 (stereo not drawn) [Compound 562, N-(4-{(E)-2-[2-(4-butyl-cyclohexyl)-4-oxo-1,3,8-triaza-spiro[4.5]dec-1-ene-8-sulfonyl]-vinyl}-3,5-dimethyl-phenyl)-N-[2-(2-fluoro-ethoxy)-ethyl]-acetamide]  74%
5. CC(=O)N(C)Cc1cc(C)c(/C=C/S(=O)(=O)N2CCC3(CC2)N=C(C2CCC(CCC(F)(F)F)CC2)NC3=O)c(C)c1 (stereo not drawn) [Compound 559, N-[3,5-dimethyl-4-((E)-2-{4-oxo-2-[4-(3,3,3-trifluoro-propyl)-cyclohexyl]-1,3,8-triaza-spiro[4.5]dec-1-ene-8-sulfonyl}-vinyl)-benzyl]-N-methyl-acetamide]  72%
6. Cc1cc(N2C(=O)CNC2=O)ccc1/C=C/S(=O)(=O)N1CCC2(CC1)N=C(C1CCC(C(C)C)CC1)NC2=O (stereo not drawn) [Compound 563, 3-(4-{(E)-2-[2-(4-Isopropyl-cyclohexyl)-4-oxo-1,3,8-triaza-spiro[4.5]dec-1-ene-8-sulfonyl]-vinyl}-3-methyl-phenyl)-imidazolidine-2,4-dione]  69%
7. Cc1cc(N2C(=O)CNC2=O)cc(C)c1/C=C/S(=O)(=O)N1CCC2(CC1)N=C(C1CCC(C(C)C)CC1)NC2=O (stereo not drawn) [Compound 564, 3-(4-{(E)-2-[2-(4-isopropyl-cyclohexyl)-4-oxo-1,3,8-triaza-spiro[4.5]dec-1-ene-8-sulfonyl]-vinyl}-3,5-dimethyl-phenyl)-imidazolidine-2,4-dione]  68%
8. CCCCC1CCC(C2=NC3(CCN(S(=O)(=O)/C=C/c4ccc(N5C(=O)CNC5=O)cc4C)CC3)C(=O)N2)CC1 (stereo not drawn) [Compound 560, 3-(4-{(E)-2-[2-(4-Butyl-cyclohexyl)-4-oxo-1,3,8-triaza-spiro[4.5]dec-1-ene-8-sulfonyl]-vinyl}-3-methyl-phenyl)-imidazolidine-2,4-dione]  66%
9. CC(C)(C)CNC(=O)Cc1ccc(/C=C/S(=O)(=O)N2CCC3(CC2)N=C(C2CCCCC2)NC3=O)cc1 [Compound 570, 2-{4-[(E)-2-(2-cyclohexyl-4-oxo-1,3,8-triaza-spiro[4.5]dec-1-ene-8-sulfonyl)-vinyl]-phenyl}-N-(2,2-dimethyl-propyl)-acetamide]  66%
10. CC(=O)NNC(=O)c1cc(C)c(/C=C/S(=O)(=O)N2CCC3(CC2)N=C(C2CCC(CCC(F)(F)F)CC2)NC3=O)c(C)c1 (stereo not drawn) [Compound 552, 3,5-dimethyl-4-((E)-2-{4-oxo-2-[4-(3,3,3-trifluoro-propyl)-cyclohexyl]-1,3,8-triaza-spiro[4.5]dec-1-ene-8-sulfonyl}-vinyl)-benzoic acid N′-acetyl-hydrazide]  64%
11. Cc1cc(N2C(=O)CNC2=O)cc(C)c1/C=C/S(=O)(=O)N1CCC2(CC1)N=C(C1CCC(C)CC1)NC2=O (stereo not drawn) [Compound 575, 3-(3,5-Dimethyl-4-{(E)-2-[2-(4-methyl-cyclohexyl)-4-oxo-1,3,8-triaza-spiro[4.5]dec-1-ene-8-sulfonyl]-vinyl}-phenyl)-imidazolidine-2,4-dione]  57%
12. CCCCC1CCC(C2=NC3(CCN(S(=O)(=O)/C=C/c4c(C)cc(N(CCOCCOC)C(C)=O)cc4C)CC3)C(=O)N2)CC1 (stereo not drawn) [Compound 561, N-(4-{(E)-2-[2-(4-butyl-cyclohexyl)-4-oxo-1,3,8-triaza-spiro[4.5]dec-1-ene-8-sulfonyl]-vinyl}-3,5-dimethyl-phenyl)-N-[2-(2-methoxy-ethoxy)-ethyl]-acetamide]  52%
13. Cc1cc(CN2C(=O)CCC2=O)cc(C)c1/C=C/S(=O)(=O)N1CCC2(CC1)N=C(C1CCC(CCC(F)(F)F)CC1)NC2=O (stereo not drawn) [Compound 557, 1-[3,5-dimethyl-4-((E)-2-{4-oxo-2-[4-(3,3,3-trifluoro-propyl)-cyclohexyl]-1,3,8-triaza-spiro[4.5]dec-1-ene-8-sulfonyl}-vinyl)-benzyl]-pyrrolidine-2,5-dione]  50%
14. CN(C)C(=O)NCc1ccc(/C=C/S(=O)(=O)N2CCC3(CC2)N=C(C2CCCCC2)NC3=O)cc1 [Compound 565, 3-{4-[(E)-2-(2-cyclohexyl-4-oxo-1,3,8-triaza-spiro[4.5]dec-1-ene-8-sulfonyl)-vinyl]-benzyl}-1,1-dimethyl-urea]  45%
15. CC(=O)N(CC1(C)COC1)c1cc(C)c(/C=C/S(=O)(=O)N2CCC3(CC2)N=C(C2CCCCC2)NC3=O)c(C)c1 [Compound 574, N-{4-[(E)-2-(2-cyclohexyl-4-oxo-1,3,8-triaza-spiro[4.5]dec-1-ene-8-sulfonyl)-vinyl]-3,5-dimethyl-phenyl}-N-(3-methyl-oxetan-3-ylmethyl)-acetamide]  42%
16. Cc1cc(CN2C(=O)NC(C)(C)C2=O)cc(C)c1/C=C/S(=O)(=O)N1CCC2(CC1)N=C(C1CCC(CCC(F)(F)F)CC1)NC2=O (stereo not drawn) [Compound 555, 3-[3,5-dimethyl-4-((E)-2-{4-oxo-2-[4-(3,3,3-trifluoro-propyl)-cyclohexyl]-1,3,8-triaza-spiro[4.5]dec-1-ene-8-sulfonyl}-vinyl)-benzyl]-5,5-dimethyl-imidazolidine-2,4-dione]  40%
17. Cc1cc(NS(=O)(=O)N(C)C)ccc1/C=C/S(=O)(=O)N1CCC2(CC1)N=C(C1CCCCC1)NC2=O [Compound 568, N-{4-[(E)-2-(2-cyclohexyl-4-oxo-1,3,8-triaza-spiro[4.5]dec-1-ene-8-sulfonyl)-vinyl]-3-methyl-phenyl}-N′,N′-dimethyl-sulfamide]  39%
18. CC(C)N(CCNC(=O)Cc1ccc(/C=C/S(=O)(=O)N2CCC3(CC2)N=C(C2CCCCC2)NC3=O)cc1)C(C)C [Compound 571, 2-{4-[(E)-2-(2-cyclohexyl-4-oxo-1,3,8-triaza-spiro[4.5]dec-1-ene-8-sulfonyl)-vinyl]-phenyl}-N-(2-diisopropylamino-ethyl)-acetamide]  39%
19. Cc1cc(N2CCC2=O)ccc1/C=C/S(=O)(=O)N1CCC2(CC1)N=C(C1CCCCC1)NC2=O [Compound 572, 2-cyclohexyl-8-{(E)-2-[2-methyl-4-(2-oxo-azetidin-1-yl)-phenyl]-ethenesulfonyl}-1,3,8-triaza-spiro[4.5]dec-1-en-4-one]  36%
20. Cc1cc(Nc2nccs2)cc(C)c1/C=C/S(=O)(=O)N1CCC2(CC1)N=C(C1CCCCC1)NC2=O [Compound 573, 2-cyclohexyl-8-{(E)-2-[2,6-dimethyl-4-(thiazol-2-ylamino)-phenyl]-ethenesulfonyl}-1,3,8-triaza-spiro[4.5]dec-1-en-4-one]  35%
21. CN1CCN(C(=O)NCc2ccc(/C=C/S(=O)(=O)N3CCC4(CC3)N=C(C3CCCCC3)NC4=O)cc2)CC1 [Compound 567, 4-methyl-piperazine-1-carboxylic acid 4-[(E)-2-(2-cyclohexyl-4-oxo-1,3,8-triaza-spiro[4.5]dec-1-ene-8-sulfonyl)-vinyl]-benzylamide]  24%
22. Cc1cc(CN2CCCC2=O)cc(C)c1/C=C/S(=O)(=O)N1CCC2(CC1)N=C(C1CCC(CCC(F)(F)F)CC1)NC2=O (stereo not drawn) [Compound 556, 8-{(E)-2-[2,6-dimethyl-4-(2-oxo-pyrrolidin-1-ylmethyl)-phenyl]-ethenesulfonyl}-2-[4-(3,3,3-trifluoro-propyl)-cyclohexyl]-1,3,8-triaza-spiro[4.5]dec-1-en-4-one]  19%
23. COC(=O)NCCc1ccc(/C=C/S(=O)(=O)N2CCC3(CC2)N=C(C2CCCCC2)NC3=O)cc1 [Compound 566, (2-{4-[(E)-2-(2-cyclohexyl-4-oxo-1,3,8-triaza-spiro[4.5]dec-1-ene-8-sulfonyl)-vinyl]-phenyl}-ethyl)-carbamic acid methyl ester]  19%
24. Cc1cc(CN(CCCN(C)C)C(=O)OC(C)(C)C)ccc1/C=C/S(=O)(=O)N1CCC2(CC1)N=C(C1CCCCC1)NC2=O [Compound 569, {4-[(E)-2-(2-cyclohexyl-4-oxo-1,3,8-triaza-spiro[4.5]dec-1-ene-8-sulfonyl)-vinyl]-3-methyl-benzyl}-(3-dimethylamino-propyl)-carbamic acid tert-butyl ester]  4.2%
